Target: T1, IKKα (Homo sapiens, UniProt O15111)
T1 construct: gene CHUK; recombinant IKKα (Invitrogen), described as a monomer
T1 sequence (O15111 1-745): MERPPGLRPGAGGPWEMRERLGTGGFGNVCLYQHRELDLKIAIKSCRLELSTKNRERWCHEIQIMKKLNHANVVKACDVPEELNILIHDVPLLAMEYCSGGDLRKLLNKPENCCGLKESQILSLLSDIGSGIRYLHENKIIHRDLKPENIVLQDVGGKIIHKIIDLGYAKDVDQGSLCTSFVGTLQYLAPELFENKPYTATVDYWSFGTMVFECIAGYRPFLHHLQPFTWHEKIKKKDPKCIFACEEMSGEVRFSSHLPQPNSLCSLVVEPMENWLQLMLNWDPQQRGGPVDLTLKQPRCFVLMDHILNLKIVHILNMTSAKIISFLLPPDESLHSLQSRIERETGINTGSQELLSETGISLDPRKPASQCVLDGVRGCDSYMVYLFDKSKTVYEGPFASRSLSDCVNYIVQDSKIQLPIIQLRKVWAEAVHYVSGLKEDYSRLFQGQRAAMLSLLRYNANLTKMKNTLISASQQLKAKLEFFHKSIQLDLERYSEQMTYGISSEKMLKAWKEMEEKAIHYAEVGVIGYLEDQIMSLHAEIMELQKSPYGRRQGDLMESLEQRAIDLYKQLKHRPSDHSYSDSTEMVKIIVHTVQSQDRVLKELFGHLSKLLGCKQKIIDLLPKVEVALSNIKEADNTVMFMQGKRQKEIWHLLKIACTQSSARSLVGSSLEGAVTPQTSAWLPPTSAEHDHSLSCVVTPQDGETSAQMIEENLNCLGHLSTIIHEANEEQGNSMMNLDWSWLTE
Experiment: in vitro kinase assay with recombinant IKKα and IKKtide, UPLC-MS readout
Assay type: biochemical

IC50: 500 ± 86 µM
Structure (SMILES): CC(=O)N[C@@H](Cc1ccccc1)C(=O)N[C@@H]1[C@@H](O)[C@H](O)[C@@H](CO)O[C@H]1O [NAPA, 2-(N-Acetyl)-L-phenylalanylamido-2-deoxy-β -D-glucose]

Source: PMC7915277, “Biochemical and Computational Studies of the Interaction between a Glucosamine Derivative, NAPA, and the IKKα Kinase” (International Journal of Molecular Sciences, 2021)
